According to PubChem BioAssay AID2060503 (Molecular Pharmacology Branch, DTP, NCI, 2025):
pIC50: −log10 of the molar value.

Tested on: 817829-284-R-J1-PDC complex spheroids, viability
Test: Anticancer human tumor 817829-284-R-J1-PDC patient-derived colon adenocarcinoma cell line growth inhibition [GQUAD]
Conditions: for pIC50: curve of first compound; for viability, T/C: stronger effect = lower value
How it was run: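 Tumor cells were grown as complex spheroids with HUVEC endothelial cells and mesenchymal stem cells as stroma. G-quadruplex stabilizers were combined with targeted agents over half-log dilutions from near the clinical Cmax, or from 10 microM.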

[1] = second compound 0.0316 µM, first compound 0.0316 µM
[2] = second compound 0.0316 µM, first compound 0.1 µM
[3] = second compound 0.0316 µM, first compound 0.316 µM
[4] = second compound 0.0316 µM, first compound 1 µM
[5] = second compound 0.0316 µM, first compound 3.16 µM
[6] = second compound 0.0316 µM, first compound 10 µM
[7] = second compound 0.1 µM, first compound 0.0316 µM
[8] = second compound 0.1 µM, first compound 0.1 µM
[9] = second compound 0.1 µM, first compound 0.316 µM
[10] = second compound 0.1 µM, first compound 1 µM
[11] = second compound 0.1 µM, first compound 3.16 µM
[12] = second compound 0.1 µM, first compound 10 µM
[13] = second compound 0.316 µM, first compound 0.0316 µM
[14] = second compound 0.316 µM, first compound 0.1 µM
[15] = second compound 0.316 µM, first compound 0.316 µM
[16] = second compound 0.316 µM, first compound 1 µM
[17] = second compound 0.316 µM, first compound 3.16 µM
[18] = second compound 0.316 µM, first compound 10 µM
[19] = second compound 1 µM, first compound 0.0316 µM
[20] = second compound 1 µM, first compound 0.1 µM
[21] = second compound 1 µM, first compound 0.316 µM
[22] = second compound 1 µM, first compound 1 µM
[23] = second compound 1 µM, first compound 3.16 µM
[24] = second compound 1 µM, first compound 10 µM
[25] = second compound 3.16 µM, first compound 0.0316 µM
[26] = second compound 3.16 µM, first compound 0.1 µM
[27] = second compound 3.16 µM, first compound 0.316 µM
[28] = second compound 3.16 µM, first compound 1 µM
[29] = second compound 3.16 µM, first compound 3.16 µM
[30] = second compound 3.16 µM, first compound 10 µM
[31] = second compound 10 µM, first compound 0.0316 µM
[32] = second compound 10 µM, first compound 0.1 µM
[33] = second compound 10 µM, first compound 0.316 µM
[34] = second compound 10 µM, first compound 1 µM
[35] = second compound 10 µM, first compound 3.16 µM
[36] = second compound 10 µM, first compound 10 µM
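Note: spheroids exposed to agents for 7 days before readout.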
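Throughout, for viability, T/C: percent viability relative to DMSO vehicle control taken as 100%.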

CCCS(=O)(=O)Nc1ccc(F)c(C(=O)c2c[nH]c3ncc(-c4ccc(Cl)cc4)cc23)c1F + Cc1cnc(CNC(=O)c2c(=O)c3ccc(N4CCCN(C)CC4)nc3n3c2sc2ccccc23)cn1
pIC50 (second compound 0.0316 µM): 7.35 | pIC50 (second compound 0.1 µM): > 7.50 | pIC50 (second compound 0.316 µM): > 7.50 | pIC50 (second compound 1 µM): > 7.50 | pIC50 (second compound 3.16 µM): > 7.50 | pIC50 (second compound 10 µM): > 7.50 | viability, T/C [1]: 57.4% | viability, T/C [2]: 33.9% | viability, T/C [3]: 34.4% | viability, T/C [4]: 28.3% | viability, T/C [5]: 30.9% | viability, T/C [6]: 11.8% | viability, T/C [7]: 20.7% | viability, T/C [8]: 21.9% | viability, T/C [9]: 15.6% | viability, T/C [10]: 14.8% | viability, T/C [11]: 12.5% | viability, T/C [12]: 10.2% | viability, T/C [13]: 19.2% | viability, T/C [14]: 20% | viability, T/C [15]: 17.1% | viability, T/C [16]: 16.7% | viability, T/C [17]: 15.7% | viability, T/C [18]: 10.7% | viability, T/C [19]: 16.7% | viability, T/C [20]: 19.7% | viability, T/C [21]: 18.6% | viability, T/C [22]: 14.5% | viability, T/C [23]: 14.5% | viability, T/C [24]: 6.86% | viability, T/C [25]: 18% | viability, T/C [26]: 17.4% | viability, T/C [27]: 15.1% | viability, T/C [28]: 12.9% | viability, T/C [29]: 12.2% | viability, T/C [30]: 2.83% | viability, T/C [31]: 0.09% | viability, T/C [32]: 0.13% | viability, T/C [33]: 0.17% | viability, T/C [34]: 0.16% | viability, T/C [35]: 0.17% | viability, T/C [36]: 0.17%

O=C(NO)c1cnc(N2CCN(S(=O)(=O)c3ccc4ccccc4c3)CC2)nc1 + CN(C)c1ccc(Nc2c3ccc(NC(=O)CCN4CCCC4)cc3nc3cc(NC(=O)CCN4CCCC4)ccc23)cc1
pIC50 (second compound 0.0316 µM): 6.76 | pIC50 (second compound 0.1 µM): 6.74 | pIC50 (second compound 0.316 µM): 6.72 | pIC50 (second compound 1 µM): 6.74 | pIC50 (second compound 3.16 µM): 6.77 | pIC50 (second compound 10 µM): 7.08 | viability, T/C [1]: 107% | viability, T/C [2]: 91.7% | viability, T/C [3]: 5.47% | viability, T/C [4]: 0.25% | viability, T/C [5]: 0.18% | viability, T/C [6]: 0.2% | viability, T/C [7]: 116% | viability, T/C [8]: 101% | viability, T/C [9]: 4.32% | viability, T/C [10]: 0.23% | viability, T/C [11]: 0.12% | viability, T/C [12]: 0.17% | viability, T/C [13]: 98.8% | viability, T/C [14]: 111% | viability, T/C [15]: 5.37% | viability, T/C [16]: 0.23% | viability, T/C [17]: 0.11% | viability, T/C [18]: 0.15% | viability, T/C [19]: 103% | viability, T/C [20]: 99.4% | viability, T/C [21]: 4.41% | viability, T/C [22]: 0.21% | viability, T/C [23]: 0.1% | viability, T/C [24]: 0.13% | viability, T/C [25]: 110% | viability, T/C [26]: 89.4% | viability, T/C [27]: 4.33% | viability, T/C [28]: 0.21% | viability, T/C [29]: 0.12% | viability, T/C [30]: 0.15% | viability, T/C [31]: 102% | viability, T/C [32]: 39.8% | viability, T/C [33]: 2.02% | viability, T/C [34]: 0.23% | viability, T/C [35]: 0.19% | viability, T/C [36]: 0.19%

CC1COCCN1c1cc(-c2ccnn2C)c2ccnc(-c3ccn[nH]3)c2n1 (stereo not given) + CN(C)c1ccc(Nc2c3ccc(NC(=O)CCN4CCCC4)cc3nc3cc(NC(=O)CCN4CCCC4)ccc23)cc1
pIC50 (second compound 0.0316 µM): > 7.50 | pIC50 (second compound 0.1 µM): > 7.50 | pIC50 (second compound 0.316 µM): > 7.50 | pIC50 (second compound 1 µM): > 7.50 | pIC50 (second compound 3.16 µM): > 7.50 | pIC50 (second compound 10 µM): > 7.50 | viability, T/C [1]: 49.1% | viability, T/C [2]: 21.1% | viability, T/C [3]: 10.9% | viability, T/C [4]: 7.46% | viability, T/C [5]: 6.76% | viability, T/C [6]: 6.4% | viability, T/C [7]: 43.7% | viability, T/C [8]: 19.4% | viability, T/C [9]: 9.94% | viability, T/C [10]: 7.09% | viability, T/C [11]: 6.81% | viability, T/C [12]: 5.85% | viability, T/C [13]: 41.3% | viability, T/C [14]: 20.7% | viability, T/C [15]: 9.46% | viability, T/C [16]: 9.2% | viability, T/C [17]: 6.26% | viability, T/C [18]: 5.57% | viability, T/C [19]: 45.9% | viability, T/C [20]: 19.1% | viability, T/C [21]: 9.31% | viability, T/C [22]: 8.05% | viability, T/C [23]: 7.11% | viability, T/C [24]: 5.77% | viability, T/C [25]: 36.6% | viability, T/C [26]: 16.5% | viability, T/C [27]: 9.69% | viability, T/C [28]: 9.19% | viability, T/C [29]: 7.57% | viability, T/C [30]: 5.75% | viability, T/C [31]: 25% | viability, T/C [32]: 16.9% | viability, T/C [33]: 8.98% | viability, T/C [34]: 6.93% | viability, T/C [35]: 5.14% | viability, T/C [36]: 3.02%

C=CCn1c(=O)c2cnc(Nc3ccc(N4CCN(C)CC4)cc3)nc2n1-c1cccc(C(C)(C)O)n1 + CN(C)c1ccc(Nc2c3ccc(NC(=O)CCN4CCCC4)cc3nc3cc(NC(=O)CCN4CCCC4)ccc23)cc1
pIC50 (second compound 0.0316 µM): 6.62 | pIC50 (second compound 0.1 µM): 6.66 | pIC50 (second compound 0.316 µM): 6.58 | pIC50 (second compound 1 µM): 6.64 | pIC50 (second compound 3.16 µM): 6.67 | pIC50 (second compound 10 µM): 6.72 | viability, T/C [1]: 99.2% | viability, T/C [2]: 106% | viability, T/C [3]: 33.4% | viability, T/C [4]: 9.73% | viability, T/C [5]: 6.22% | viability, T/C [6]: 6.74% | viability, T/C [7]: 88.5% | viability, T/C [8]: 101% | viability, T/C [9]: 29.5% | viability, T/C [10]: 9.11% | viability, T/C [11]: 7.3% | viability, T/C [12]: 5.57% | viability, T/C [13]: 102% | viability, T/C [14]: 109% | viability, T/C [15]: 39.2% | viability, T/C [16]: 9.34% | viability, T/C [17]: 7.03% | viability, T/C [18]: 5.88% | viability, T/C [19]: 99.8% | viability, T/C [20]: 102% | viability, T/C [21]: 30.9% | viability, T/C [22]: 9.37% | viability, T/C [23]: 6.93% | viability, T/C [24]: 6.42% | viability, T/C [25]: 89.3% | viability, T/C [26]: 102% | viability, T/C [27]: 26.4% | viability, T/C [28]: 10.9% | viability, T/C [29]: 7.22% | viability, T/C [30]: 5.95% | viability, T/C [31]: 104% | viability, T/C [32]: 82.4% | viability, T/C [33]: 24% | viability, T/C [34]: 11.2% | viability, T/C [35]: 7.11% | viability, T/C [36]: 2.4%

C=CCn1c(=O)c2cnc(Nc3ccc(N4CCN(C)CC4)cc3)nc2n1-c1cccc(C(C)(C)O)n1 + Cc1[nH]c2ccc(F)cc2c1-c1nc2c3cccnc3c3ncccc3c2[nH]1
pIC50 (second compound 0.0316 µM): 6.66 | pIC50 (second compound 0.1 µM): 6.62 | pIC50 (second compound 0.316 µM): 6.59 | pIC50 (second compound 1 µM): 6.66 | pIC50 (second compound 3.16 µM): > 7.50 | pIC50 (second compound 10 µM): > 7.50 | viability, T/C [1]: 101% | viability, T/C [2]: 92.9% | viability, T/C [3]: 30.2% | viability, T/C [4]: 8.8% | viability, T/C [5]: 6.61% | viability, T/C [6]: 5.37% | viability, T/C [7]: 82.1% | viability, T/C [8]: 111% | viability, T/C [9]: 35.2% | viability, T/C [10]: 7.33% | viability, T/C [11]: 6.25% | viability, T/C [12]: 4.08% | viability, T/C [13]: 97.2% | viability, T/C [14]: 109% | viability, T/C [15]: 38.9% | viability, T/C [16]: 8.37% | viability, T/C [17]: 6.05% | viability, T/C [18]: 4.81% | viability, T/C [19]: 104% | viability, T/C [20]: 103% | viability, T/C [21]: 26.2% | viability, T/C [22]: 8.6% | viability, T/C [23]: 6.38% | viability, T/C [24]: 4.1% | viability, T/C [25]: 46.1% | viability, T/C [26]: 30.2% | viability, T/C [27]: 8.17% | viability, T/C [28]: 5.38% | viability, T/C [29]: 4.83% | viability, T/C [30]: 4.49% | viability, T/C [31]: 28.6% | viability, T/C [32]: 14.8% | viability, T/C [33]: 6.57% | viability, T/C [34]: 4.68% | viability, T/C [35]: 5.07% | viability, T/C [36]: 4.08%
